Laboratory results taken from US7943601B2, “2-methylene-20-methyl-19,24,25,26,27-pentanor-vitamin D analogs” (Wisconsin Alumni Research Foundation, priority 2007, dated 2011).
Where two headings read alike, the source gives them in different places.

Experiments:
[1] = test system: HL-60 cells; assay: HL-60 differentiation (nitro blue tetrazolium reduction); assay type: cell-based, human; conditions: four days, read-out: EC50, HL-60 cell differentiation
Experimental: The study drugs were dissolved in ethanol and the concentrations determined using UV spectrophotometry. Serial dilutions were prepared so that a range of drug concentrations could be tested without changing the final concentration of ethanol (≦0.2%) present in the cell cultures.
Human promyelocytic leukemia (HL60) cells were grown in RPMI-1640 medium containing 10% fetal bovine serum. The cells were incubated at 37° C. in the presence of 5% CO2.
HL60 cells were plated at 1.2×10^5 cells/ml. Eighteen hours after plating, cells in duplicate were treated with drug. Four days later, the cells were harvested and a nitro blue tetrazolium reduction assay was performed (Collins et al., 1979; J. Exp. Med. 149:969-974). The percentage of differentiated cells was determined by counting a total of 200 cells and recording the number that contained intracellular black-blue formazan deposits. Verification of differentiation to monocytic cells was determined by measuring phagocytic activity (data not shown).

[2] = test system: 24-hydroxylase (24Ohase) gene promoter; assay: In vitro transcription assay, luciferase reporter in ROS 17/2.8 (bone) cells; assay type: cell-based; conditions: ROS 17/2.8 cells, sixteen hours after dosing; read-out: EC50, transcriptional activity in bone cells (24-hydroxylase gene)
Experimental: Transcription activity was measured in ROS 17/2.8 (bone) cells that were stably transfected with a 24-hydroxylase (24Ohase) gene promoter upstream of a luciferase reporter gene (Arbour et al., 1998). Cells were given a range of doses. Sixteen hours after dosing the cells were harvested and luciferase activities were measured using a luminometer.
RLU=relative luciferase units.

[3] = test system: vitamin D-deficient rats; assay: Bone calcium mobilization (serum calcium); assay type: in vivo, rat; conditions: rats on low calcium diet (0.02%); for bone calcium mobilization (serum calcium levels): all dose levels tested, four ip doses
Experimental: (§1) Male, weanling Sprague-Dawley rats were placed on Diet 11 (0.47% Ca) diet+AEK oil for one week followed by Diet 11 (0.02% Ca)+AEK oil for 3 weeks. The rats were then switched to a diet containing 0.47% Ca for one week followed by two weeks on a diet containing 0.02% Ca. Dose administration began during the last week on 0.02% calcium diet. Four consecutive ip doses were given approximately 24 hours apart. Twenty-four hours after the last dose, blood was collected from the severed neck and the concentration of serum calcium determined as a measure of bone calcium mobilization. The first 10 cm of the intestine was also collected for intestinal calcium transport analysis using the everted gut sac method.

[4] = test system: vitamin D-deficient rats; assay: Intestinal calcium transport (everted gut sac method); assay type: in vivo, rat
Experimental: as §1

[5] = target: T1, full-length recombinant rat vitamin D receptor (Rattus norvegicus, UniProt P13053); assay: Vitamin D receptor binding, competition with [3H]-1,25(OH)2D3
T1 construct: Full-length recombinant rat receptor was expressed in E. coli; histidine tag (C); made in house; host or cells: E. coli BL21 (DE3) Codon Plus RIL
T1 sequence (P13053 1-423): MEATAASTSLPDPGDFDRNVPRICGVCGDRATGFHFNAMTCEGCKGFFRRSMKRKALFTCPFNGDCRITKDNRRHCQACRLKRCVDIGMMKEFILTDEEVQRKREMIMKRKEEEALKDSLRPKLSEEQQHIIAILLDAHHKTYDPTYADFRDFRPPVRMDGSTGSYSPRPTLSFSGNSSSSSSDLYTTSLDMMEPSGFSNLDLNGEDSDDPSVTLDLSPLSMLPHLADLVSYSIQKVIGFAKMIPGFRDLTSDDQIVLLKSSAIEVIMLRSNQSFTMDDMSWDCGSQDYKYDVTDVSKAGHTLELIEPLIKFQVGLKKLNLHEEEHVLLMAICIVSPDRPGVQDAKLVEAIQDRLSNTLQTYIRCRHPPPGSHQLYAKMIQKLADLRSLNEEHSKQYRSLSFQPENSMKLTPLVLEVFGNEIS
Experimental: Full-length recombinant rat receptor was expressed in E. coli BL21 (DE3) Codon Plus RIL cells and purified to homogeneity using two different column chromatography systems. The first system was a nickel affinity resin that utilizes the C-terminal histidine tag on this protein. The protein that was eluted from this resin was further purified using ion exchange chromatography (S-Sepharose Fast Flow). Aliquots of the purified protein were quick frozen in liquid nitrogen and stored at −80° C. until use. For use in binding assays, the protein was diluted in TEDK50 (50 mM Tris, 1.5 mM EDTA, pH7.4, 5 mM DTT, 150 mM KCl) with 0.1% Chaps detergent. The receptor protein and ligand concentration were optimized such that no more than 20% of the added radiolabeled ligand was bound to the receptor.
Radiolabeled and unlabeled ligands were added to 100 mcl of the diluted protein at a final ethanol concentration of ≦10%, mixed and incubated overnight on ice to reach binding equilibrium. The following day, 100 mcl of hydroxylapatite slurry (50%) was added to each tube and mixed at 10-minute intervals for 30 minutes. The hydroxylapaptite was collected by centrifugation and then washed three times with Tris-EDTA buffer (50 mM Tris, 1.5 mM EDTA, pH 7.4) containing 0.5% Titron X-100. […] Total binding was determined from the tubes containing only radiolabeled ligand.

[6] = 260 pmol/day ip for 4 consecutive days, everted gut sac

affinity for the vitamin D receptor relative to 1,25(OH)2D3 ([5]; compared to 1,25(OH)2D3) | Ki ([5]; full-length recombinant rat vitamin D receptor, read-out: Ki, competition with [3H]-1,25(OH)2D3 for binding to VDR) [nM] | EC50 ([1]; Homo sapiens, 96 h) [nM] | SMILES | EC50 [1] [nM] | EC50 [2] [nM] | bone calcium mobilization (serum calcium levels) [3] | intestinal calcium transport [4, 6] | bone calcium mobilization ([3]; 260 pmol/day ip for 4 consecutive days) | bone calcium mobilization ([3]; 7020 pmol/day ip for 4 consecutive days) | intestinal calcium transport ([4]; 7020 pmol/day ip for 4 consecutive days, everted gut sac) | intestinal calcium transport ([4]; four consecutive ip doses, doses tested, compared to 1,25(OH)2D3)
– | – | – | C=C1/C(=C\C=C2/CCC[C@]3(C)[C@@H]([C@H](C)CCCC(C)(C)O)CC[C@@H]23)C[C@@H](O)C[C@@H]1O [1,25(OH)2D3, 1α,25-dihydroxyvitamin D3, reference compound] | 4 | 0.2 | increased serum calcium levels at all dosages | promotes a significant increase | – | – | – | –
approximately one-half log less affinity | 0.08 | 10 | C=C1[C@H](O)CC(=C/C=C2\CCC[C@]3(C)[C@@H](C(C)(C)CC)CC[C@@H]23)C[C@H]1O [20DCM, 2-methylene-20-methyl-1α-hydroxy-19,24,25,26,27-pentanor-vitamin D3] | – | 4 | does not have any measurable activity | promotes intestinal calcium transport only slightly | did not result in mobilization of bone calcium | without effect | no significant intestinal calcium transport activity | very little activity
